Experimental data published in paper PMC10761660, “Preclinical evaluation of an ^18F-labeled N^ε-acryloyllysine piperazide for covalent targeting of transglutaminase 2” (EJNMMI Radiopharmacy and Chemistry, 2024).
Where “and” joins values, the source holds several entries; their conditions need not be identical. Equal values may be shown once. Entries after “also recorded” stand apart in the source; their conditions may differ. Read-outs that look alike come from different tables or passages of the source.

Assay: Metabolic stability and arterial blood clearance in a normal Wistar rat
Assay type: in vivo
Conditions: for c02: i.v. 5.27 nmol; for half-life / Vd / clearance / k el: male, iv, 5.27 nmol; for half-life / Vd / clearance: Wistar, rat; for clearance: plasma
Description: The following procedure was performed as recently published (Laube et al. [2020]). For assessing the in vivo stability, [^18F]7b (69.8 MBq corresponding to 5.27 nmol in 0.5 mL 0.9% NaCl with 5% ethanol (v/v)) was injected i.v. into a male Wistar rat (body weight 170 g) under desflurane anesthesia (10% desflurane in 30% oxygen/air, v/v). Using a catheter, blood samples from femoral artery were taken at 1, 3, 5, 10, 20, 30, 60, and 120 min p.i. The resulting loss of volume was compensated by i.v. injection of E153. Plasma was separated by centrifugation (3 min; 13,000 × g) followed by precipitation of plasma proteins with ice-cold Supersol (EtOH 20% (v/v), Triton X-100 0.5% (v/v), EDTA 5 mM, o-Phenanthroline 0.5 mM, Saponin 0.1% (w/v)). Clear supernatant separated by a second centrifugation step (3 min; 13,000 × g) was analyzed by radio-HPLC (Hewlett Packard Series 1100 equipped with a γ-detector (Raytest Ramona), Zorbax SB-C18, 300 Å, 4 μm, 250 × 9.4 mm (Agilent), eluent A, 0.1% (v/v) trifluoroacetic acid in H2O; eluent B, 0.1% (v/v) trifluoroacetic acid in CH3CN). Gradient elution was performed using 95% eluent A for 5 min, 95% eluent A to 95% eluent B in 10 min, 95% eluent B for 5 min, and 95% eluent B to 95% eluent A in 5 min, 3 mL/min, 50 °C. The clear supernatant was also analyzed by radio-TLC using reversed-phase TLC plates (ALUGRAM RP-18W/UV254 from Macherey–Nagel, Düren, Germany) with a mobile phase of 50% CH3CN in water containing 0.1% trifluoroacetic acid. For total protein precipitation at 5 and 60 min p.i., plasma samples were diluted with twice the volume of 15% trichloroacetic acid (TCA) in water instead of Supersol. Clear supernatant was separated by centrifugation (3 min; 13,000 × g) and analyzed as described above.
The measured activity concentrations (decay-corrected) in the blood samples of the Wistar rat were transformed into concentrations of 7b by taking the molar activity of [^18F]7b into account. These values were corrected by the fractions of intact [^18F]7b as analyzed by radio-HPLC or radio-TLC. These corrected concentrations were plotted against the time and analysis was performed by nonlinear regression according to two-phase decay as implemented in GraphPad Prism (Plateau was set to 0, Fig. 3B). However, for derivation of pharmacokinetic parameters, the corrected concentrations were converted to their log values and plotted against the time (semi-logarithmic plot, see inset in Fig. 3B). By linear regression of the data from 3 to 30 min, values for c02 (putative concentration of 7b at the beginning of the elimination phase) and kel (elimination rate constant) were derived. C02 was obtained as antilog of the intercept at the y-axis and kel represents the slope of the line. By knowing these two parameters as well as the applied dose (D = 5.27 nmol), the apparent volume of distribution (VD) and the plasma clearance (CL) was calculated using equations 7 and 8 (Freissmuth et al. [2016]).7 VD=D/c02 8 CL=kβ×VD

[1] = whole blood (arterial), radio-HPLC

For C=CC(=O)NCCCCC(NC(=O)Cc1ccccc1)C(=O)N1CCN(c2cccc([18F])n2)CC1 (stereo not shown) [[^18F]7b], the “fraction of unmodified [^18F]7b in both blood components” value (20 min p.i., plasma and erythrocytes) was over 40%, the “residual intact [^18F]7b in intestinal content” value (120 min (2 h) p.i., radio-HPLC) was 7% and the “residual intact [^18F]7b in urine” value (120 min (2 h) p.i., radio-HPLC) was 8%. For the same compound, the “binding of ^18F-activity to plasma proteins” value (ex vivo plasma, protein precipitation) was “not protein-bound; also recorded: quite low”, the c02 (intact fraction by radio-HPLC) was 22.4 nM and the c02 (intact fraction by radio-TLC) was 18.4 nM. The “terminal t1/2 (elimination half-life)” value (i.v., radio-HPLC) was 17 min, the half-life (arterial blood, i.v., radio-TLC, read-out: terminal t1/2) was 16 min and the Vd (arterial blood, radio-HPLC) was 0.235 L. The Vd (arterial blood, radio-TLC) was 0.287 L and 1.69 L/kg, the clearance (i.v., radio-HPLC data, read-out: plasma clearance (plasma CL)) was 56 mL/min/kg and the clearance (i.v., radio-HPLC, read-out: Plasma CL) was 9.5 mL/min and 56 mL/min/kg. For the same compound, the clearance (i.v., radio-TLC, read-out: Plasma CL) was 12.6 mL/min and 74 mL/min/kg, the half-life (whole blood (arterial), i.v., radio-HPLC, read-out: terminal t1/2 (elimination half-life)) was 17.2 min and the Vd [1] was 1.38 L/kg. The k el (arterial blood, radio-TLC) was 0.000733 s⁻¹, the k el [1] was 0.000667 s⁻¹ and the “^18F-activity in blood bound to erythrocytes” value (stable from 10 to 120 min p.i.) was “≈ 30%”. For the same compound, the “^18F-activity in blood located in the plasma fraction” value (stable from 10 to 120 min p.i.) was “≈ 60%”.
